Data taken from patent US9375493B2, “Bacterial imaging agents and methods of using same” (VisEn Medical, Inc., priority 2012, dated 2016).

Legend:
Escherichia coli [1] = experiment: In vivo imaging of Escherichia coli thigh infection (FMT2500); set-up: species or system SKH1-E female mice; conditions: 10^5-10^8 CFUs i.m. left thigh; 5 nM agent i.v. about 24 hours after inoculation; imaged one hour after agent injection
Experimental: SKH1-E female mice, aged 6-8 weeks, were injected intramuscularly in the left thigh with different concentrations of Escherichia coli at 10^5-10^8 CFUs. At approximately 24 hours after the initial bacterial inoculation, mice were given intravenous injections of 5 nM of bacterium targeting agent, compound A7.

[2] = test system: Staphylococcus epidermidis; experiment: In vivo imaging of Staphylococcus epidermidis thigh infection (FMT2500); set-up: species or system SKH1-E female mice; conditions: 10^8 CFUs i.m. left thigh; 5 nM agent i.v. about 24 hours after inoculation; imaged one, two and three hours after agent injection; all time points
Experimental: SKH1-E female mice, aged 6-8 weeks, were injected intramuscularly with 10^8 CFUs (colony forming units) of Staphylococcus epidermidis in the left thigh. Mice were given intravenous injections of 5 nM of bacterium targeting agent, compound A7, approximately 24 hours after the initial bacterial inoculation.

Escherichia coli [3] = experiment: In vitro binding of bacterium targeting agent to bacteria, flow cytometry; format: cell-based; conditions: 10 μM final in TES buffer, RT, 1 hour; FIG. 1A/1B
Experimental: (§1) Bacteria were grown at 37° C. to an OD600=0.3-0.5 and centrifuged at 3500 rpm for 4 minutes before the subsequent pellets were re-suspended in TES buffer. Bacteria with or without targeting agent were grown under the same conditions. Bacterial targeting agents, compound A7, were incubated with bacterial pellets at a concentration of 10 μM final in TES buffer at RT for 1 hour. […] In this experiment, fluorescence is only associated with bacteria in the presence of the bacterium targeting agent described herein.

[4] = test system: Staphylococcus epidermidis; experiment: as above; format: cell-based; conditions: 10 μM final in TES buffer, RT, 1 hour; FIG. 1A/1B
Experimental: as §1

Compound: CN1/C(=C/C=C(/C=C/C2=[N+](CCCS(=O)(=O)O)c3ccccc3C2(C)C)c2ccc(C(=O)NCCCCCC(=O)NCC(=O)Nc3ccc(CC[N+]45CC[N+](C)(CC4)CC5)cc3)cn2)C(C)(C)c2ccccc21 [Compound A7, 3-(3,3-dimethyl-2-((1E,3Z,5E)-3-(5-((6-((2-((4-(2-(4-methyl-1,4-diazabicyclo[2.2.2]octan-1,4-diium-1-yl)ethyl)phenyl)amino)-2-oxoethyl)amino)-6-oxohexyl)carbamoyl)pyridin-2-yl)-5-(1,3,3-trimethylindolin-2-ylidene)penta-1,3-dien-1-yl)-3H-indol-1-ium-1-yl)propane-1-sulfonate di-acetate]
- uptake of the agent at the site of infection (tomographic images) (Escherichia coli [1]): clear uptake of the bacterial targeting agent at the site of the infection
- differentiation between infected and uninfected areas (fluorescence, tomographic imaging) [2]: Statistically significant differentiation between infected and uninfected areas
- in vitro binding to bacteria (fluorescence by flow cytometry) (Escherichia coli [3]): in vitro binding
- in vitro binding to bacteria (fluorescence by flow cytometry) [4]: in vitro binding
